Data set [1] addresses HDAC1 (Homo sapiens, UniProt Q13547). Kind of data set: in vitro HDAC inhibition assay (fluorescence), HDAC1. It is filed as biochemical. Here is the method: (§1) Briefly, all of the compounds are dissolved in DMSO. A series of dilutions of the compounds were prepared with 10% DMSO in HDAC assay buffer and 5 μl of the dilution was added to a 50 μl reaction so that the final concentration of DMSO is 1% in all of reactions. The compounds were pre-incubated in duplicate at RT for 1 hour in a mixture containing HDAC assay buffer, 5 μg BSA, HDAC enzyme (see Table 7) and a the particular HDACi. After 1 hour, the enzymatic reactions were initiated by the addition of HDAC substrate (BPS Bioscience) to a final concentration of 10 μM or 2 μM. The enzymatic reaction proceeded for 30 minutes at 37° C.
(§2) HDAC activity assays were performed in duplicates at each concentration. The fluorescent intensity data were analyzed using the computer software, Graphpad Prism. In the absence of the compound, the fluorescent intensity (Ft) in each data set was defined as 100% activity. In the absence of HDAC, the fluorescent intensity (Fb) in each data set was defined as 0% activity. The percent activity in the presence of each compound was calculated according to the following equation: % activity=(F−Fb)/(Ft−Fb), where F=the fluorescent intensity in the presence of the compound. […]

Data set [2] deals with T1, HDAC7 (Homo sapiens, UniProt Q8WUI4).
T1 sequence (Q8WUI4 1-952): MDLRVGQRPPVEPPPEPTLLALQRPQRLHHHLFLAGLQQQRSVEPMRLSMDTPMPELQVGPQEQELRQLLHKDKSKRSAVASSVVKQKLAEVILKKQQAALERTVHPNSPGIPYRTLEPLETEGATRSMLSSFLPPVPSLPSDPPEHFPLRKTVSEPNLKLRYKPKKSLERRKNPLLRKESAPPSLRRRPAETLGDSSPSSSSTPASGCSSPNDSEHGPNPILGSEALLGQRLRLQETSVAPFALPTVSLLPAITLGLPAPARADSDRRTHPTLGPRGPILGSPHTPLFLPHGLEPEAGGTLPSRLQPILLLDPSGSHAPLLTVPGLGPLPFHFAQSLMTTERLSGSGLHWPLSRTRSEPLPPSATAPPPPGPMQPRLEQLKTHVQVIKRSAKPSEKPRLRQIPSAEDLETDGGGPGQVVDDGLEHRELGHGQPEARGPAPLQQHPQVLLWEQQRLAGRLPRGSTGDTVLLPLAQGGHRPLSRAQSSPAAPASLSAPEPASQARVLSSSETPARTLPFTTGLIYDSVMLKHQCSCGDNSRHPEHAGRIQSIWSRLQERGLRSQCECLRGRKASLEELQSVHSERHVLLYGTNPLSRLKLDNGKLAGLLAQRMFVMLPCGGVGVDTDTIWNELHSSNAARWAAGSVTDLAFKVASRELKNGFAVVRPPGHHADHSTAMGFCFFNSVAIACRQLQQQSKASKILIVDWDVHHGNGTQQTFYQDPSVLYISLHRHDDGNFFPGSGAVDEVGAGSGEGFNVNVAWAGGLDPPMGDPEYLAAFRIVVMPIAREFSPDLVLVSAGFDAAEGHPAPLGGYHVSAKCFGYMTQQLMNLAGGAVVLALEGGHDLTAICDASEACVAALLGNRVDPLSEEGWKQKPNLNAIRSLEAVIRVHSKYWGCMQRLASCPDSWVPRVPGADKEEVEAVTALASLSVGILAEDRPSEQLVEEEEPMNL
Kind of data set: in vitro HDAC inhibition assay (fluorescence), HDAC7. It is filed as biochemical. The following applies: HDAC7. Here is the method:
as §1, §2

For data set [3], the target named is T2, HDAC11 (Homo sapiens, UniProt Q96DB2).
T2 sequence (Q96DB2 1-347): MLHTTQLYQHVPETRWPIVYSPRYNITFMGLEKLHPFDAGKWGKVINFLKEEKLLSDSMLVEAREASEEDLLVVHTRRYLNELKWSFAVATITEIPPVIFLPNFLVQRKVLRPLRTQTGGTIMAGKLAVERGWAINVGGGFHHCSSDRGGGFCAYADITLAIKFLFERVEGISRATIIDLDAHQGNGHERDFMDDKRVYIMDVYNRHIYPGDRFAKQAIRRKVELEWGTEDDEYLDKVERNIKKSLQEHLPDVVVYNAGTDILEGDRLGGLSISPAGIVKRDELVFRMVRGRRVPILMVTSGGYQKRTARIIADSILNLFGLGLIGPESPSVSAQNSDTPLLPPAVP
Kind of data set: in vitro HDAC inhibition assay (fluorescence), HDAC11. The data set is classed as biochemical. Conditions: HDAC11. The protocol: as §1, §2

Data set [4] can be described thus: Single dose pharmacokinetics of VRx-3996 in patients, serum, cycle 1 day 1. It is filed as in vivo, humans. Conditions: human, po. Here is the method:
Patients enrolled in study were administered oral nanatinostat and valganciclovir at predefined doses. […] 8.1 software.

In data set [5] the test system is Histone 3 acetylation in peripheral blood mononuclear cells. Kind of data set: H3 acetylation in peripheral blood mononuclear cells of healthy donors, flow cytometry. The data set is classed as cell-based, humans. Conditions: PBMC of healthy donors. The source says:
Percentage of cells with H3 acetylation, as determined by flow cytometry, is shown.
Since H3 acetylation is a pharmacodynamic biomarker of Nstat activity, acetylation of H3 was examined in treated cells.
(A flow cytometer gives signals particle by particle.)

From US20240058347A1, “DOSAGES FOR HDAC TREATMENT WITH REDUCED SIDE EFFECTS” (VIRACTA THERAPEUTICS, INC., priority 2019, published 2024) come the findings set out here.

pIC50: −log10 of the molar value. Like-named read-outs stand apart in the source and are kept apart here.

Sequence of HDAC1 (Q13547 whole entry): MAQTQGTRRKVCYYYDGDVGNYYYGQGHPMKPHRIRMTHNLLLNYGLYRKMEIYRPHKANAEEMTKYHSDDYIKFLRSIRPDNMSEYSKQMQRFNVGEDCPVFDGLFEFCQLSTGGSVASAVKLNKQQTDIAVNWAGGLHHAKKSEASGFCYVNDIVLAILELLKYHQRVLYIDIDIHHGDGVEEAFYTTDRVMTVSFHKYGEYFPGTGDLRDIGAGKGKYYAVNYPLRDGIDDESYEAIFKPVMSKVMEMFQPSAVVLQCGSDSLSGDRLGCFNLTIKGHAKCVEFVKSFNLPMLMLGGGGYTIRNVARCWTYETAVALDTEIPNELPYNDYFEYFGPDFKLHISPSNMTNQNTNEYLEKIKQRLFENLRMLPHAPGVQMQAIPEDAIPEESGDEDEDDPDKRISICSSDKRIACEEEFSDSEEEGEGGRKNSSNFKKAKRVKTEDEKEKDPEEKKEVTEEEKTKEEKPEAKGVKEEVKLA

As for `O=C(NO)c1cnc(N2CC3C(C2)C3NCc2ccc3cc(F)ccc3n2)nc1` (stereo not drawn) [Nstat, 2-(6-{[(6-Fluoroquinolin-2-yl)methyl]amino}-3-azabicyclo[3.1.0]hex-3-yl)-N-hydroxypyrimidine-5-carboxamide], the pIC50 is 8.44 in data set [1], 5.80 in data set [2] and 5.55 in data set [3]. The AUC in data set [4] (Treatment A = 5 mg VRx-3996 p.o. and 450 mg Valganciclovir p.o., single dose, N=1, read-out: AUC, geometric mean) came out at 117 ng·h/mL; in data set [4] (Treatment B = 10 mg VRx-3996 p.o. and 450 mg Valganciclovir p.o., single dose, N=1, read-out: AUC, geometric mean) it was 317 ng·h/mL; in data set [4] (Treatment C = 10 mg VRx-3996 p.o. and 900 mg Valganciclovir p.o., single dose, N=4, read-out: AUC, geometric mean), 322 ng·h/mL. Also, the half-life in data set [4] (Treatment A = 5 mg VRx-3996 p.o. and 450 mg Valganciclovir p.o., single dose, N=1, read-out: Half-Life, geometric mean (converted)) is 2.18 h; in data set [4] (Treatment B = 10 mg VRx-3996 p.o. and 450 mg Valganciclovir p.o., single dose, N=1, read-out: Half-Life, geometric mean (converted)), 1.17 h; in data set [4] (Treatment C = 10 mg VRx-3996 p.o. and 900 mg Valganciclovir p.o., single dose, N=4, read-out: Half-Life, geometric mean (converted)), 1.67 h; in data set [4] (humans, oral nanatinostat with valganciclovir, read-out: T1/2 (converted)) it was approximately 2 h. Moreover, the AUC(0-t) amounted to 40.5 ng·h/mL in data set [4] (Treatment A = 5 mg VRx-3996 p.o. and 450 mg Valganciclovir p.o., single dose, N=4, read-out: AUClast, geometric mean); 165 ng·h/mL in data set [4] (Treatment B = 10 mg VRx-3996 p.o. and 450 mg Valganciclovir p.o., single dose, N=9, read-out: AUClast, geometric mean); 227 ng·h/mL in data set [4] (Treatment C = 10 mg VRx-3996 p.o. and 900 mg Valganciclovir p.o., single dose, N=6, read-out: AUClast, geometric mean). The Cmax was determined as 18.5 ng/mL in data set [4] (Treatment A = 5 mg VRx-3996 p.o. and 450 mg Valganciclovir p.o., single dose, N=4, read-out: Cmax, geometric mean); 62.6 ng/mL in data set [4] (Treatment B = 10 mg VRx-3996 p.o. and 450 mg Valganciclovir p.o., single dose, N=9, read-out: Cmax, geometric mean); 78.9 ng/mL in data set [4] (Treatment C = 10 mg VRx-3996 p.o. and 900 mg Valganciclovir p.o., single dose, N=6, read-out: Cmax, geometric mean). Further, the Tmax in data set [4] (Treatment A = 5 mg VRx-3996 p.o. and 450 mg Valganciclovir p.o., single dose, N=4, read-out: Tmax, median (range)) worked out at 3 h; in data set [4] (Treatment B = 10 mg VRx-3996 p.o. and 450 mg Valganciclovir p.o., single dose, N=9, read-out: Tmax, median (range)) it was 2 h; in data set [4] (Treatment C = 10 mg VRx-3996 p.o. and 900 mg Valganciclovir p.o., single dose, N=6, read-out: Tmax, median (range)), 1 h. The “potency in inducing elevated levels of Histone 3 acetylation” value in data set [5] (even at a dose of 100 nM, FIG. 2) was “much more potent than entinostat”. Further, the “duration of effect on H3 acetylation (time-course)” value in data set [5] (even at doses down to 10 nM, FIG. 3) was “long-lasting”.

The pIC50 is the IC50 on a negative log10 scale, so that one unit is a factor of ten. The AUC is the area under the concentration-time curve, a measure of exposure. Usually Cmax stands for the maximum level reached in the sampled fluid or tissue. For orientation: Tmax means the time at which the peak concentration occurs.
